Results taken from patent US20250326715A1, “NOVEL MAIN PROTEASE INHIBITORS, AND COMPOSITIONS AND METHODS THEREOF” (University of Massachusetts, priority 2023, published 2025).

Target: M^Pro (Severe acute respiratory syndrome coronavirus 2, UniProt P0DTD1)
Test: Chemoproteomic enrichment of proteins labelled by SM144 in A549-hACE2 lysate spiked with M^Pro
Format: binding, SARS-CoV-2
Conditions: 1 μM SM144, lysate spiked with 250 nM M^Pro
Experimental: The proteome-wide selectivity was evaluated via an orthogonal chemoproteomic assay. […] Subsequently, the labeled proteins were biotinylated with copper-catalyzed click chemistry in the presence of Biotin-azide, and the biotinylated proteins were selectively enriched on Streptavidin-agarose beads, proteolyzed with trypsin and analyzed by chemoproteomic analysis. […] There were, however, a few cellular off-targets, including glutathione reductase (GSHR), adenosylhomocysteinase (SAHH), aldose reductase (ALDR), S-adenosylmethionine synthase isoform type-2 (METK2), gamma-actin (ACTG), tubulin alpha-4A chain (TBA4A), ubiquitin-like modifier-activating enzyme 1 (UBA1) and junction plakoglobin (PLAK).
A549-hACE2 cell lysate was prepared as described earlier. Endogenous biotinylated proteins were precleared by incubating the lysates with streptavidin-agarose beads (25 μL for 1 mg of total protein in the lysate) at room temperature for 1 h with constant mixing on an end-over-end shaker. The mixture was centrifuged (1200 g, 3 minute) to separate the beads and the supernatant (pre-cleared lysate). […] The assay mixture was incubated at 25° C. for 30 min. Then Biotin-N3 (200 μM), TCEP (1 mM), TBTA (0.3 mM) and freshly prepared CuSO4 (4 mM) were added sequentially, and the tubes were gently tumbled at room temperature for 2 h. […]

For C#CCOCCC(=O)NC(Cc1ccc(F)cc1)C(=O)NC(Cc1ccccc1)C(=O)NC(C=CC(=O)OCC)CC1CCNC1=O (stereo not shown) [SM144], the “proteome-wide selectivity (enriched proteins)” value was “M^Pro is the most statistically significantly enriched protein”.
